Values quoted from earlier work as cited in patent publication EP4691467A1, “USE OF INHIBITOR SPECIFICALLY TARGETING NLRP3 INFLAMMASOME” (Sichuan Jianlin Pharmaceutical Co., Ltd, priority 2023, dated 2024).

Key:
ASC specks = details: cells pre-treated with MCC950, pro-inflammatory conditions
[1] = test system: experimental autoimmune encephalomyelitis (EAE); details: in vivo
IL-18 = details: Muckle Wells syndrome
[2] = phase II clinical trials, rheumatoid arthritis; trials suspended

CC(C)(O)c1coc(S(=O)(=O)NC(=O)Nc2c3c(cc4c2CCC4)CCC3)c1 [MCC950]
formation of ASC specks (ASC specks): inhibit
production of IL-1β in vivo (IL-1β): reduce
severity of disease models of multiple sclerosis (EAE) [1]: attenuate
lethality of newborn mice (CAPS mouse model): reduce
extension of lifespan (CAPS mouse model; newborn mice): ~20 days
release of IL-18 in plasma (IL-18): shows efficacy in inhibiting
hepatotoxicity [2]: excessive hepatotoxicity
